Measurements published in PubChem BioAssay (NCI).
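Method: 48-hour compound exposure of cells in 96-well plates, five concentrations, linear interpolation of endpoints. GI50 is the concentration that inhibits growth by half. TGI: concentration producing complete growth inhibition.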

What was measured:
Assay in all cases: growth of human tumour cells (NCI), 48 h
MDA-MB-231 breast = system: MDA-MB-231 breast
SK-MEL-5 melanoma = system: SK-MEL-5 melanoma
MOLT-4 leukemia = system: MOLT-4 leukemia
PC-3 prostate = system: PC-3 prostate
HOP-62 NSCLC = system: HOP-62 NSCLC
HT29 colon = system: HT29 colon
HL-60(TB) leukemia = system: HL-60(TB) leukemia
MDA-N = system: MDA-N
SF-539 CNS = system: SF-539 CNS
UACC-257 melanoma = system: UACC-257 melanoma
CAKI-1 renal = system: CAKI-1 renal
SK-MEL-28 melanoma = system: SK-MEL-28 melanoma

Row | Compound | TGI (MDA-MB-231 breast) [µM] | TGI (SK-MEL-5 melanoma) [µM] | TGI (MOLT-4 leukemia) [µM] | TGI (PC-3 prostate) [µM] | TGI (HOP-62 NSCLC) [µM] | TGI (HT29 colon) [µM] | TGI (HL-60(TB) leukemia) [µM] | TGI (MDA-N) [µM] | TGI (SF-539 CNS) [µM] | TGI (UACC-257 melanoma) [µM] | TGI (CAKI-1 renal) [µM] | TGI (SK-MEL-28 melanoma) [µM] | GI50 (MOLT-4 leukemia) [µM]
1 | COc1cc(/C=C2\C(=O)N(c3ccc(NC(C)=O)cc3)C(c3ccccc3)S2(=O)=O)cc(OC)c1OC (centres undefined) | > 100 | > 100 | > 100 | > 100 | > 100 | > 100 | 79.1 | > 100 | > 100 | > 100 | > 100 | > 100 | –
2 | CCOC(=O)CON=c1c2ccccc2ccc2ccccc12 | > 100 | > 100 | > 100 | > 100 | > 100 | > 100 | > 100 | > 100 | > 100 | > 100 | > 100 | > 100 | –
3 | Cc1ncc([N+](=O)[O-])n1CCNC(=O)Cn1ccnc1[N+](=O)[O-] | > 100 | > 100 | > 100 | > 100 | > 100 | > 100 | > 100 | > 100 | > 100 | > 100 | > 100 | > 100 | –
4 | N#Cc1nc(-c2ccc(-c3nc(C#N)c(N)o3)cc2)oc1N | > 10 | > 10 | > 10 | > 10 | > 10 | > 10 | > 10 | > 10 | > 10 | > 10 | > 10 | > 10 | –
5 | CCOC(=O)C(C)c1nc2cc(C(F)(F)F)ccc2[nH]c1=O (centres undefined) | > 100 | > 100 | > 100 | > 100 | > 100 | > 100 | > 100 | > 100 | > 100 | > 100 | > 100 | > 100 | –
6 | COc1ccc2oc(=O)c(-c3csc(-c4ccccc4)n3)cc2c1 | > 100 | > 100 | > 100 | > 100 | 34.3 | > 100 | > 100 | > 100 | 31.2 | > 100 | > 100 | > 100 | –
7 | C=CC[C@@]12CCC(=O)C=C1CCCC2=O | > 100 | > 100 | > 100 | > 100 | > 100 | > 100 | > 100 | > 100 | > 100 | > 100 | > 100 | > 100 | –
8 | COc1ccc(OC2OC(CO)C(O)C(O)C2O)cc1 (centres undefined) | > 100 | > 100 | > 100 | > 100 | > 100 | > 100 | > 100 | > 100 | > 100 | > 100 | > 100 | > 100 | –
9 | [O-]/[N+](=N/c1ncc(-c2ccccc2)cn1)c1ncc(-c2ccccc2)cn1 | > 100 | > 100 | > 100 | > 100 | > 100 | > 100 | > 100 | > 100 | > 100 | > 100 | > 100 | > 100 | –
10 | C=C(C)CCN(C(=O)OC(C)(C)C)c1cc(C(C)C)co1 | > 100 | > 100 | 98 | 99.6 | > 100 | > 100 | 43.8 | > 100 | > 100 | > 100 | > 100 | > 100 | –
11 | O=C1O/C(=C(/Cl)c2c3ccccc3cc3ccccc23)c2ccccc21 | 40.3 | 30.7 | > 100 | > 100 | 57.8 | 43.1 | 22.6 | > 100 | 47.8 | > 100 | > 100 | > 100 | –
12 | COC(=O)/C=C/c1ccc2c(c1)[C@H](C(=O)OC)[C@@H](c1ccc(O)cc1)O2 | > 100 | 28.1 | 96.5 | > 100 | > 100 | > 100 | 67.6 | 95.7 | > 100 | > 100 | > 100 | > 100 | –
13 | COc1ccc2cc(/C=N\NC(=O)Nc3ccc([N+](=O)[O-])cc3)ccc2c1 | 19.1 | 17.7 | 21.8 | 18.8 | 41.6 | 16.1 | 30.7 | 18.5 | 18.3 | 20.7 | 18.5 | 23.1 | –
14 | CC1(C)N([O-])[N+](=O)C1(Br)c1ccccc1 (centres undefined) | > 100 | > 100 | > 100 | > 100 | > 100 | > 100 | > 100 | > 100 | > 100 | > 100 | > 100 | > 100 | –
15 | COC(=O)C1=C(C(=O)OC)C(OO)(c2ccccc2)OC1=O (centres undefined) | > 100 | > 100 | > 100 | > 100 | – | > 100 | > 100 | > 100 | > 100 | > 100 | > 100 | > 100 | –
16 | CC(C)N(C(=O)C12C3(C(=O)C(C)(C)C)C4C5(C#N)C3C1(C(=O)C(C)(C)C)C5C42C(=O)C(C)(C)C)C(C)C (centres undefined) | > 100 | > 100 | > 100 | > 100 | > 100 | > 100 | > 100 | > 100 | > 100 | > 100 | > 100 | > 100 | –
17 | CC(=O)c1sc2n(C)c(=O)c3ccccc3[n+]2c1C | > 100 | > 100 | > 100 | > 100 | > 100 | > 100 | > 100 | > 100 | > 100 | > 100 | > 100 | > 100 | –
18 | COC(=O)/C(C#N)=C(/NCc1ccccc1)Nc1ccccc1 | > 100 | > 100 | > 100 | > 100 | > 100 | > 100 | > 100 | > 100 | > 100 | > 100 | > 100 | > 100 | –

Row | Compound | TGI (MDA-MB-231 breast) [µM] | TGI (SK-MEL-5 melanoma) [µM] | TGI (MOLT-4 leukemia) [µM] | TGI (PC-3 prostate) [µM] | TGI (HOP-62 NSCLC) [µM] | TGI (HT29 colon) [µM] | TGI (HL-60(TB) leukemia) [µM] | TGI (MDA-N) [µM] | TGI (SF-539 CNS) [µM] | TGI (UACC-257 melanoma) [µM] | TGI (CAKI-1 renal) [µM] | TGI (SK-MEL-28 melanoma) [µM] | GI50 (MOLT-4 leukemia) [µM]
19 | COCCNC1CCC(=O)c2[nH]c3ccccc3c21 (centres undefined) | > 100 | > 100 | > 100 | > 100 | > 100 | > 100 | > 100 | > 100 | > 100 | > 100 | > 100 | > 100 | –
20 | C=C1C(=O)OC2/C=C(\C)CC/C=C(\C)CC(OC(=O)/C(=C/CO)CO)[C@@H]12 (some centres undefined) | 28.2 | 26.1 | 5.55 | 31.8 | – | 20.6 | 12.6 | 20.2 | 26.3 | 24.2 | 14.1 | 31.2 | 1.92
21 | CN(C)c1cccc(/C=C(\C#N)c2ccccc2)c1 | 53.7 | 21 | > 21.1 | > 100 | 8.65 | 2.57 | 1.34 | 0.161 | 4.32 | > 71.7 | > 100 | > 100 | –
22 | CCN(CC)c1ccc2cc(-c3csc(C)n3)c(=O)oc2c1 | > 100 | > 100 | > 100 | > 100 | 94.6 | > 100 | > 100 | > 100 | > 100 | > 100 | > 100 | > 100 | –
23 | N/N=C(/CC(O)(C(F)(F)F)C(F)(F)F)c1ccccc1 | > 10 | > 10 | > 10 | > 10 | > 10 | > 10 | > 10 | > 10 | > 10 | > 10 | > 10 | > 10 | –
24 | CC(C)(C)CN1[C@@H]2CCCC[C@H]2N(CC(C)(C)C)P1(=O)C(O)/C=C/c1ccccc1 (some centres undefined) | > 100 | 38.9 | > 100 | > 100 | > 100 | > 100 | 81.1 | > 100 | – | > 100 | > 100 | > 100 | –
25 | CC1=NN(C(=O)CC(=O)Nc2ccc(Cl)cc2)C(=O)C1N=Nc1ccc(S(=O)(=O)c2ccc(N=NC3C(=O)N(C(=O)CC(=O)Nc4ccc(Cl)cc4)N=C3C)cc2)cc1 (centres undefined) | > 100 | > 100 | > 100 | > 100 | > 100 | > 100 | > 100 | > 100 | > 100 | > 100 | > 100 | > 100 | –
26 | CNc1cccc2c1C(C)C[C@]1(C)C(=O)Nc3ccccc3[C@H]21 (some centres undefined) | 42.9 | > 100 | > 100 | 74.5 | 36.4 | 81.6 | > 100 | 69.9 | > 100 | 39.3 | 63.7 | 91.8 | –
27 | N#CCCN(CCCN(C(=O)Nc1ccc(NC(=O)N(CCCN(CCC#N)C(N)=O)c2ccccc2)cc1)c1ccccc1)C(N)=O | > 100 | > 100 | > 100 | > 100 | > 100 | > 100 | > 100 | > 100 | > 100 | > 100 | > 100 | > 100 | –
28 | O=C1OC(C2Cc3ccc4c(c3C2=O)CCCC4)c2ccccc21 (centres undefined) | > 100 | 84.7 | 47.5 | > 100 | > 100 | > 100 | > 100 | > 100 | 66.7 | > 100 | > 100 | > 100 | –
29 | CC(C(=O)O)C1Nc2ccccc2NC1=O (centres undefined) | > 100 | > 100 | > 100 | > 100 | – | > 100 | > 100 | > 100 | > 100 | > 100 | > 100 | > 100 | –
30 | COC(=O)C1Cc2c([nH]c3ccccc23)-c2[nH]c3ccccc3c2CC(NC(C)=O)C(=O)NCC(=O)NCC(=O)N1 (centres undefined) | > 100 | > 100 | > 100 | > 100 | > 100 | > 100 | > 100 | > 100 | > 100 | > 100 | > 100 | > 100 | –
31 | N#CCN1CCN(CC#N)CCN(CC#N)CCN(CC#N)CC1 | > 100 | > 100 | > 100 | > 100 | > 100 | > 100 | > 100 | > 100 | > 100 | > 100 | > 100 | > 100 | –
32 | O=S1(=O)c2ccccc2-c2nccc3ccnc1c23 | 95.7 | 27.7 | 6.87 | > 100 | > 100 | 23.2 | > 100 | > 100 | > 100 | > 100 | 85.9 | > 100 | –
33 | Nc1ncc(N)c(NCC2(CO)CC(CCc3ccccc3)C2)n1 (centres undefined) | 14.8 | 14 | 8.56 | 18.9 | 28.3 | 20.5 | 0.987 | 21.5 | 8.67 | 22.8 | 21.8 | 27.9 | –
34 | CC(C)(C)OC(=O)NCC(=O)N(CCc1ccc(Cl)c(Cl)c1)CCN1CCCC1 | 26.6 | 28.4 | 28.5 | 30.3 | 27.7 | 23.7 | 30.4 | 29.1 | 32.8 | 29.9 | 36 | 29.7 | –
35 | CC1CN=C(NS(=O)(=O)c2cc(C(=O)Nc3ccccc3)c(Cl)cc2S)NN1 (centres undefined) | > 100 | > 100 | > 100 | > 100 | > 100 | > 100 | > 100 | 71.5 | > 100 | > 100 | > 100 | > 100 | –
36 | CNC(=O)OCc1nc(N=[N+]=[N-])n(C)c1COC(=O)NC | > 100 | > 10 | 88.3 | > 100 | > 100 | > 100 | 48.9 | > 100 | > 100 | > 100 | 61 | > 100 | –
